{"source": "paper PMC5491562", "about": "“Effects of semaglutide on beta cell function and glycaemic control in participants with type 2 diabetes: a randomised, double-blind, placebo-controlled trial” (Diabetologia, 2017)", "key": {"[1]": {"details": "cited from earlier work", "excerpt": "Semaglutide (Novo Nordisk, Bagsværd, Denmark) is a GLP-1 analogue in development for the once-weekly treatment of type 2 diabetes. It has 94% structural homology to native human GLP-1, and is based on the same […] technology as liraglutide. Important structural modifications make semaglutide more resistant to degradation by dipeptidyl peptidase-4 and improve binding to albumin [16]. These modifications result in a t ½ of approximately 1 week, making semaglutide appropriate for once-weekly s.c. administration, with a fully retained potency."}, "[2]": {"system": "participants with type 2 diabetes", "details": "in vivo", "procedure": "Adverse events (AEs) were recorded from the time of the participant signing informed consent through to the end of follow-up and were regarded as treatment-emergent adverse events (TEAEs) if beginning (or increasing in severity) after the first study dose and no later than the end of follow-up."}, "[3]": {"assay": "Steady-state pharmacokinetics of semaglutide", "details": "1.0 mg s.c. at steady state; estimated in 34 participants; geometric mean (CV, %)", "source_text": "Blood samples were drawn throughout the trial to assess PK (trough values).\ntime–concentration curve during a dosing interval), calculated using standard non-\ncompartmental methods using the linear trapezoidal method on the observed concentrations\nusing actual time points; maximum concentration (Cmax), derived as the maximum of all\nhalf-life (t½), calculated as log2/λz, where λz was estimated by log-linear regression on the"}}, "data": [{"smiles": "CC[C@H](C)[C@H](NC(=O)[C@H](Cc1ccccc1)NC(=O)[C@H](CCC(=O)O)NC(=O)[C@H](CCCCNC(=O)COCCOCCNC(=O)COCCOCCNC(=O)CC[C@H](NC(=O)CCCCCCCCCCCCCCCCC(=O)O)C(=O)O)NC(=O)[C@H](C)NC(=O)[C@H](C)NC(=O)[C@H](CCC(N)=O)NC(=O)CNC(=O)[C@H](CCC(=O)O)NC(=O)[C@H](CC(C)C)NC(=O)[C@H](Cc1ccc(O)cc1)NC(=O)[C@H](CO)NC(=O)[C@H](CO)NC(=O)[C@@H](NC(=O)[C@H](CC(=O)O)NC(=O)[C@H](CO)NC(=O)[C@@H](NC(=O)[C@H](Cc1ccccc1)NC(=O)[C@@H](NC(=O)CNC(=O)[C@H](CCC(=O)O)NC(=O)C(C)(C)NC(=O)[C@@H](N)Cc1cnc[nH]1)[C@@H](C)O)[C@@H](C)O)C(C)C)C(=O)N[C@@H](C)C(=O)N[C@@H](Cc1c[nH]c2ccccc12)C(=O)N[C@@H](CC(C)C)C(=O)N[C@H](C(=O)N[C@@H](CCCNC(=N)N)C(=O)NCC(=O)N[C@@H](CCCNC(=N)N)C(=O)NCC(=O)O)C(C)C", "note": "[semaglutide, Semaglutide]", "values": [{"measurement": "t½", "setting": "[1]", "result": "approximately 1 week"}, {"measurement": "Anti-semaglutide antibodies", "setting": "[2]", "result": "no anti-"}, {"measurement": "Any TEAE, number of participants with events (%)", "setting": "[2]", "result": "28 (75.7)"}, {"measurement": "Gastrointestinal disorders, number of participants with events (%)", "setting": "[2]", "result": "19 (51.4)"}, {"measurement": "Injury, poisoning and procedural complications, number of participants with events (%)", "setting": "[2]", "result": "1 (2.7)"}, {"measurement": "Metabolism and nutrition disorders, number of participants with events (%)", "setting": "[2]", "result": "4 (10.8)"}, {"measurement": "Musculoskeletal and connective disorders, number of participants with events (%)", "setting": "[2]", "result": "1 (2.7)"}, {"measurement": "Nervous system disorders, number of participants with events (%)", "setting": "[2]", "result": "5 (13.5)"}, {"measurement": "Participants with TEAEs", "setting": "[2]", "result": 75.7, "unit": "%"}, {"measurement": "Participants with diarrhoea", "setting": "[2]", "result": 10.8, "unit": "%"}, {"measurement": "Participants with gastrointestinal TEAEs", "setting": "[2]", "result": 51.4, "unit": "%"}, {"measurement": "Participants with nausea", "setting": "[2]", "result": 18.9, "unit": "%"}, {"measurement": "Participants with vomiting", "setting": "[2]", "result": 16.2, "unit": "%"}, {"measurement": "Serious TEAE, number of participants with events (%)", "setting": "[2]", "result": "2 (5.4)"}, {"measurement": "Severe TEAE, number of participants with events (%)", "setting": "[2]", "result": "1 (2.7)"}, {"measurement": "Systolic blood pressure", "setting": "[2]", "result": "slightly decreased"}, {"measurement": "TEAE leading to withdrawal, number of participants with events (%)", "setting": "[2]", "result": "1 (2.7)"}, {"measurement": "Vascular disorders, number of participants with events (%)", "setting": "[2]", "result": "3 (8.1)"}, {"measurement": "Vz/F", "setting": "[3]", "result": "11.2 (18.6) l"}]}]}
